Measurements reported in the NIST ThermoML archive (doi:10.1016/j.jct.2015.10.017).
Numbers after ± are expanded uncertainties.

Assays:
[1] = mn = molality of the nth substance listed, in mol/kg; settings: 100 kPa, Liquid; for viscosity: Falling or rolling sphere viscometry; for speed of sound: Frequency=3 MHz, Sing-around technique in a fixed-path interferometer; for mass density: Vibrating tube method
[2] = 100 kPa, Liquid, Falling or rolling sphere viscometry

O [water] + O=P([O-])([O-])O.[Na+].[Na+]
viscosity ([1]; 288.15 K, m2 = 0): 1.043 ± 0.21 mPa·s | viscosity ([1]; 293.15 K, m2 = 0): 0.9312 ± 0.19 mPa·s | viscosity ([1]; 298.15 K, m2 = 0): 0.8319 ± 0.17 mPa·s | viscosity ([1]; 303.15 K, m2 = 0): 0.7981 ± 0.16 mPa·s | viscosity ([1]; 308.15 K, m2 = 0): 0.7202 ± 0.14 mPa·s

CC(=O)NCC(=O)O [N-acetylglycine] + O
viscosity ([1]; 288.15 K, m1 = 0.05): 1.091 ± 0.22 mPa·s | viscosity ([1]; 288.15 K, m1 = 0.1): 1.151 ± 0.23 mPa·s | viscosity ([1]; 288.15 K, m1 = 0.2): 1.187 ± 0.24 mPa·s | speed of sound ([1]; 288.15 K, m1 = 0.05): 1468.9 ± 10 m/s | speed of sound ([1]; 288.15 K, m1 = 0.1): 1472.1 ± 10 m/s | speed of sound ([1]; 288.15 K, m1 = 0.2): 1476.4 ± 10 m/s | mass density ([1]; 288.15 K, m1 = 0.05): 1001.32 ± 10 kg/m3 | mass density ([1]; 288.15 K, m1 = 0.1): 1002.84 ± 10 kg/m3 | mass density ([1]; 288.15 K, m1 = 0.2): 1005.54 ± 10 kg/m3 | viscosity ([1]; 293.15 K, m1 = 0.05): 0.9664 ± 0.19 mPa·s | viscosity ([1]; 293.15 K, m1 = 0.1): 1.019 ± 0.2 mPa·s | viscosity ([1]; 293.15 K, m1 = 0.2): 1.048 ± 0.21 mPa·s | speed of sound ([1]; 293.15 K, m1 = 0.05): 1484.8 ± 10 m/s | speed of sound ([1]; 293.15 K, m1 = 0.1): 1486.7 ± 10 m/s | speed of sound ([1]; 293.15 K, m1 = 0.2): 1491.2 ± 10 m/s | mass density ([1]; 293.15 K, m1 = 0.05): 1000.04 ± 10 kg/m3 | mass density ([1]; 293.15 K, m1 = 0.1): 1001.89 ± 10 kg/m3 | mass density ([1]; 293.15 K, m1 = 0.2): 1004.84 ± 10 kg/m3 | viscosity ([1]; 298.15 K, m1 = 0.05): 0.863 ± 0.17 mPa·s | viscosity ([1]; 298.15 K, m1 = 0.1): 0.9071 ± 0.18 mPa·s | viscosity ([1]; 298.15 K, m1 = 0.2): 0.9357 ± 0.19 mPa·s | speed of sound ([1]; 298.15 K, m1 = 0.05): 1499.6 ± 10 m/s | speed of sound ([1]; 298.15 K, m1 = 0.1): 1501.3 ± 10 m/s | speed of sound ([1]; 298.15 K, m1 = 0.2): 1504.5 ± 10 m/s | mass density ([1]; 298.15 K, m1 = 0.05): 998.801 ± 10 kg/m3 | mass density ([1]; 298.15 K, m1 = 0.1): 1000.37 ± 10 kg/m3 | mass density ([1]; 298.15 K, m1 = 0.2): 1003.79 ± 10 kg/m3 | viscosity ([1]; 303.15 K, m1 = 0.05): 0.8379 ± 0.17 mPa·s | viscosity ([1]; 303.15 K, m1 = 0.1): 0.8579 ± 0.17 mPa·s | viscosity ([1]; 303.15 K, m1 = 0.2): 0.8904 ± 0.18 mPa·s | speed of sound ([1]; 303.15 K, m1 = 0.05): 1514 ± 10 m/s | speed of sound ([1]; 303.15 K, m1 = 0.1): 1516.3 ± 10 m/s | speed of sound ([1]; 303.15 K, m1 = 0.2): 1519 ± 10 m/s | mass density ([1]; 303.15 K, m1 = 0.05): 997.363 ± 10 kg/m3 | mass density ([1]; 303.15 K, m1 = 0.1): 998.824 ± 10 kg/m3 | mass density ([1]; 303.15 K, m1 = 0.2): 1002.6 ± 10 kg/m3 | viscosity ([1]; 308.15 K, m1 = 0.05): 0.7411 ± 0.15 mPa·s | viscosity ([1]; 308.15 K, m1 = 0.1): 0.7624 ± 0.15 mPa·s | viscosity ([1]; 308.15 K, m1 = 0.2): 0.7856 ± 0.16 mPa·s | speed of sound ([1]; 308.15 K, m1 = 0.05): 1521.7 ± 10 m/s | speed of sound ([1]; 308.15 K, m1 = 0.1): 1524.7 ± 10 m/s | speed of sound ([1]; 308.15 K, m1 = 0.2): 1527.2 ± 10 m/s | mass density ([1]; 308.15 K, m1 = 0.05): 995.711 ± 10 kg/m3 | mass density ([1]; 308.15 K, m1 = 0.1): 997.285 ± 10 kg/m3 | mass density ([1]; 308.15 K, m1 = 0.2): 1001.3 ± 10 kg/m3

O [water] + O=P([O-])([O-])O.[K+].[K+]
viscosity ([1]; 288.15 K, m2 = 0): 1.043 ± 0.21 mPa·s | viscosity ([1]; 293.15 K, m2 = 0): 0.9312 ± 0.19 mPa·s | viscosity ([1]; 298.15 K, m2 = 0): 0.8319 ± 0.17 mPa·s | viscosity ([1]; 303.15 K, m2 = 0): 0.7981 ± 0.16 mPa·s | viscosity ([1]; 308.15 K, m2 = 0): 0.7202 ± 0.14 mPa·s

O [water] + CC(=O)NCC(=O)O
viscosity ([1]; 288.15 K, m2 = 0): 1.043 ± 0.21 mPa·s | viscosity ([1]; 293.15 K, m2 = 0): 0.9312 ± 0.19 mPa·s | viscosity ([1]; 298.15 K, m2 = 0): 0.8319 ± 0.17 mPa·s | viscosity ([1]; 303.15 K, m2 = 0): 0.7981 ± 0.16 mPa·s | viscosity ([1]; 308.15 K, m2 = 0): 0.7202 ± 0.14 mPa·s

O [water]
viscosity ([2]; 288.15 K): 1.043 ± 0.21 mPa·s | viscosity ([2]; 293.15 K): 0.9312 ± 0.19 mPa·s | viscosity ([2]; 298.15 K): 0.8319 ± 0.17 mPa·s | viscosity ([2]; 303.15 K): 0.7981 ± 0.16 mPa·s | viscosity ([2]; 308.15 K): 0.7202 ± 0.14 mPa·s
